Assay results published in ChEMBL document CHEMBL1201862, “PubChem BioAssay data set” (2004).
Each block holds one compound with its values, some of them ahead of it. Activity calls are given as the source filed them.

How the values were obtained:
[1] = test system: CHO-K1; assay: (§1) Counterscreen for antagonists of the orexin 1 receptor (OX1R; HCRTR1): Homogeneous time resolved fluorescence (HTRF)-based cell-based dose response assay to identify antagonists of the parental CHO-K1 cell line. [Related pubchem assays (depositor defined):AID434989, AID435008, AID463079, AID485270, AID492963, AID492964, AID492965, AID493232, AID504699, AID504701]; format: functional; settings: Cricetulus griseus
[2] = as §1, with “Fluorescence-based” for “Homogeneous time resolved fluorescence (HTRF)-based”, “cell-based high throughput” for “cell-based”, “CHO” for “CHO-K1”; format: functional
[3] = target: T1, Orexin/Hypocretin receptor type 1 (Homo sapiens, UniProt O43613); assay: Homogeneous Time Resolved Fluorescence (HTRF)-based cell-based high throughput dose response assay for antagonists of the orexin 1 receptor (OX1R; HCRTR1). [Related pubchem assays (depositor defined):AID434989, AID435008, AID463079, AID485270, AID492963, AID492964, AID492965, AID493232, AID504717, AID504718]; format: functional
T1 sequence (O43613 whole entry): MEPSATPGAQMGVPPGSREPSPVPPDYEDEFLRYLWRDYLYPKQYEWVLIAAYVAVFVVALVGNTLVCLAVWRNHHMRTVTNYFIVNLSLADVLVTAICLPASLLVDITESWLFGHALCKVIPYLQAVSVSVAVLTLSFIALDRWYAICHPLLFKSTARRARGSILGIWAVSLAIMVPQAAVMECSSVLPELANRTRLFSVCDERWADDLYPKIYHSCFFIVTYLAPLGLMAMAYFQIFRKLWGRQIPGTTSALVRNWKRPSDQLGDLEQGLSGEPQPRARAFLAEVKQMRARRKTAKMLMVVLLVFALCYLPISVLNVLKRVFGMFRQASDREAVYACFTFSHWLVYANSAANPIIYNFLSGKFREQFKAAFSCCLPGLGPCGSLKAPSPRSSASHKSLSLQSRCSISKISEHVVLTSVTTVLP

[4] = target: T1, Orexin/Hypocretin receptor type 1; assay: Fluorescence-based cell-based high throughput dose response assay for antagonists of the orexin 1 receptor (OX1R; HCRTR1). [Related pubchem assays (depositor defined):AID434989, AID435008, AID463079, AID485270, AID492963, AID492964, AID492965, AID493232, AID504717, AID504718]; format: functional
[5] = target: T2, Orexin receptor type 2 (Homo sapiens, UniProt O43614); assay: Counterscreen assay for antagonists of the orexin 1 receptor (OX1R; HCRTR1): Fluorescence-based cell-based dose response assay for antagonists of the orexin 2 receptor (OX2R; HCRTR2), run by assay provider.; format: functional
T2 sequence (O43614 whole entry): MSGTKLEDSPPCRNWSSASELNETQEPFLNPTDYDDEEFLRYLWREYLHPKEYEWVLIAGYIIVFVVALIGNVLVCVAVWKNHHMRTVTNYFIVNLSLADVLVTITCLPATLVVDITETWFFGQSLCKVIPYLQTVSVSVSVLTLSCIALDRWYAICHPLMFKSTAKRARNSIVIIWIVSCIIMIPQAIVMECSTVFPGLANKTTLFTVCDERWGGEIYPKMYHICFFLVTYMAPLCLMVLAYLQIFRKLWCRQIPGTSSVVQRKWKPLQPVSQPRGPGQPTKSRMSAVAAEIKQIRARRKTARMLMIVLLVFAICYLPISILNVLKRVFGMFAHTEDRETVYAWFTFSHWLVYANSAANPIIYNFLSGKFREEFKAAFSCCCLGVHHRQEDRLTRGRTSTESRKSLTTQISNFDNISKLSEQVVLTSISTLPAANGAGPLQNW

[6] = target: T2, Orexin receptor type 2; assay: Counterscreen assay for antagonists of the orexin 1 receptor (OX1R; HCRTR1): Homogeneous Time Resolved Fluorescence (HTRF)-based cell-based dose response assay for antagonists of the orexin 2 receptor (OX2R; HCRTR2), run by assay provider.; format: functional
[7] = target: T3, DNA dC->dU-editing enzyme APOBEC-3A (Homo sapiens, UniProt P31941); assay: SAR analysis of small molecule inhibitors of APOBEC3A DNA Deaminase via a fluorescence-based single-stranded DNA deaminase assay - Set 2.; format: functional; settings: read-out: IC50_Mean
[8] = target: T4, DNA dC->dU-editing enzyme APOBEC-3G (Homo sapiens, UniProt Q9HC16); assay: SAR analysis of small molecule inhibitors of APOBEC3G DNA Deaminase via a fluorescence-based single-stranded DNA deaminase assay - Set 2.; format: functional; settings: read-out: IC50_Mean
[9] = target: T4, DNA dC->dU-editing enzyme APOBEC-3G; assay: inhibition of APOBEC3G ssDNA deamination – biochemical, fluorescence, single-stranded DNA substrate, SAR follow-up (AID 602136); format: functional; settings: read-out: IC50_Mean
[10] = target: T3, DNA dC->dU-editing enzyme APOBEC-3A; assay: SAR analysis of small molecule inhibitors of APOBEC3A DNA Deaminase via a fluorescence-based single-stranded DNA deaminase assay.; format: functional; settings: read-out: IC50_Mean
[11] = target: T5, Alkaline phosphatase, tissue-nonspecific isozyme (Homo sapiens, UniProt P05186)
T5 sequence (P05186 whole entry): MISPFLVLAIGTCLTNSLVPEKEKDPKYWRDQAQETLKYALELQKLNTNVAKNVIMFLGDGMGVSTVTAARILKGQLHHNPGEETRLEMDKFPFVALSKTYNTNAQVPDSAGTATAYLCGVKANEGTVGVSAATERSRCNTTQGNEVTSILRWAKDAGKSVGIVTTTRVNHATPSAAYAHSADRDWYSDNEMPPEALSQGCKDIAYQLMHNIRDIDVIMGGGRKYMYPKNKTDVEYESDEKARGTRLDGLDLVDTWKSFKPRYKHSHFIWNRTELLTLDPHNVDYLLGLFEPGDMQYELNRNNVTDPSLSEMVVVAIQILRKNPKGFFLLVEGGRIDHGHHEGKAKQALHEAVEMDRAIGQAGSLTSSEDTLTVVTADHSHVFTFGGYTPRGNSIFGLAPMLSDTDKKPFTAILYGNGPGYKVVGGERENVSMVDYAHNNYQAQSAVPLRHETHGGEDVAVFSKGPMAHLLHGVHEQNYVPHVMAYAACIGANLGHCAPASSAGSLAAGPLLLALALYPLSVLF

[12] = target: Voltage-gated N-type calcium channel alpha-1B subunit/Amyloid beta A4 precursor protein-binding family A member 1 (Homo sapiens, UniProt Q00975+Q02410); format: protein assay
[13] = viability of uninfected HEp-2 cells – cell-based, HTS, cytotoxicity control for RSV inhibitor project, dose response (AID 2410); format: functional; settings: human respiratory syncytial virus
[14] = target: T6, Insulin-degrading enzyme (Homo sapiens, UniProt P14735); assay: recombinant IDE activation, cell-free – biochemical, fluorescence polarization, counter-screen for IDE activator project, dose response (AID 588681)
T6 sequence (P14735 whole entry): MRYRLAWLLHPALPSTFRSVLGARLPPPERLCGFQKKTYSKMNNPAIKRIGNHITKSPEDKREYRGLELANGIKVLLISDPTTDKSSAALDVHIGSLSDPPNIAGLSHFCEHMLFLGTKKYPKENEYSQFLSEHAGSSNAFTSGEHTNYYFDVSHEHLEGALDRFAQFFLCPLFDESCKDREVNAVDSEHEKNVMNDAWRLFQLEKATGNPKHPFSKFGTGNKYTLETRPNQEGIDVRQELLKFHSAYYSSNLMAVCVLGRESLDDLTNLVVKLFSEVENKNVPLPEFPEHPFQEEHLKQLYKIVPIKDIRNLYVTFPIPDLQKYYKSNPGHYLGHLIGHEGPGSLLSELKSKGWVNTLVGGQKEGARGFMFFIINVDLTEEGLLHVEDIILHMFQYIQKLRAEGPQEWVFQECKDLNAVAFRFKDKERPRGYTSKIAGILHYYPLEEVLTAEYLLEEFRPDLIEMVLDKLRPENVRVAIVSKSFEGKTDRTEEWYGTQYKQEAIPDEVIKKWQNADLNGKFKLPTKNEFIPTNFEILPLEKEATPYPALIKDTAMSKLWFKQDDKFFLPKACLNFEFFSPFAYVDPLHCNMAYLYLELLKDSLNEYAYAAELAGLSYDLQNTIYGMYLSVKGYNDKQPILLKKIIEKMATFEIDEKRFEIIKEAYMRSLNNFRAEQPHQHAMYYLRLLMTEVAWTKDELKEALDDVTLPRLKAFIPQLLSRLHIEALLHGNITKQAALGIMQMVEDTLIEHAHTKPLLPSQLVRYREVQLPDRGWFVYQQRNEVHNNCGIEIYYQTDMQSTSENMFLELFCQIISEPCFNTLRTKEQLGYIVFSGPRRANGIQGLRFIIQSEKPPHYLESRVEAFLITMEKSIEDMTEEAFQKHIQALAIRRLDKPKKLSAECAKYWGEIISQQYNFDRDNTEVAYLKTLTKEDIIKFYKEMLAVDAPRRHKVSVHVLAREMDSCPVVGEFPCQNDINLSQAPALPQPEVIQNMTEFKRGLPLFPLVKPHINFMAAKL

[15] = target: T6, Insulin-degrading enzyme; assay: cellular IDE activation of Abeta substrate cleavage – fluorescence polarization, HEK cells, dose response (AID 588439); format: functional, cell-based
[16] = test system: HEK293; assay: membrane integrity loss in HEK cells – cell-based, fluorescence, cytotoxicity control for IDE activator project, dose response (AID 588440); format: functional; settings: Homo sapiens;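 note: cytotoxicity by LDH release measuring loss of membrane integrity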
[17] = test system: HEK293; assay: optical interference in Abeta FP readout, dose response, artefact control for IDE activator project, biochemical, fluorescence polarization (AID 588442); format: functional, cell-based; settings: Homo sapiens
[18] = target: Mitochondrial peptide methionine sulfoxide reductase (Bos taurus, UniProt P54149); format: functional;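 note: absorbance read-out, biochemical high-throughput dose-response screen for MsrA inhibitors, confirmatory; recombinant bovine MsrA coupled to E. coli TrxB with NADPH and selenocystamine; potency is for inhibitors of MsrA activity on DMSO substrate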
[19] = target: T7, Apoptotic protease-activating factor 1 (Homo sapiens, UniProt O14727); assay: SAR analysis of small molecule Activators of Apaf-1 in a Fluorescent assay.; format: functional; settings: read-out: EC50_Mean;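 note: caspase-3 cleavage of fluorogenic Rh110 DEVD substrate downstream of apoptosome activation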
T7 sequence (O14727 whole entry): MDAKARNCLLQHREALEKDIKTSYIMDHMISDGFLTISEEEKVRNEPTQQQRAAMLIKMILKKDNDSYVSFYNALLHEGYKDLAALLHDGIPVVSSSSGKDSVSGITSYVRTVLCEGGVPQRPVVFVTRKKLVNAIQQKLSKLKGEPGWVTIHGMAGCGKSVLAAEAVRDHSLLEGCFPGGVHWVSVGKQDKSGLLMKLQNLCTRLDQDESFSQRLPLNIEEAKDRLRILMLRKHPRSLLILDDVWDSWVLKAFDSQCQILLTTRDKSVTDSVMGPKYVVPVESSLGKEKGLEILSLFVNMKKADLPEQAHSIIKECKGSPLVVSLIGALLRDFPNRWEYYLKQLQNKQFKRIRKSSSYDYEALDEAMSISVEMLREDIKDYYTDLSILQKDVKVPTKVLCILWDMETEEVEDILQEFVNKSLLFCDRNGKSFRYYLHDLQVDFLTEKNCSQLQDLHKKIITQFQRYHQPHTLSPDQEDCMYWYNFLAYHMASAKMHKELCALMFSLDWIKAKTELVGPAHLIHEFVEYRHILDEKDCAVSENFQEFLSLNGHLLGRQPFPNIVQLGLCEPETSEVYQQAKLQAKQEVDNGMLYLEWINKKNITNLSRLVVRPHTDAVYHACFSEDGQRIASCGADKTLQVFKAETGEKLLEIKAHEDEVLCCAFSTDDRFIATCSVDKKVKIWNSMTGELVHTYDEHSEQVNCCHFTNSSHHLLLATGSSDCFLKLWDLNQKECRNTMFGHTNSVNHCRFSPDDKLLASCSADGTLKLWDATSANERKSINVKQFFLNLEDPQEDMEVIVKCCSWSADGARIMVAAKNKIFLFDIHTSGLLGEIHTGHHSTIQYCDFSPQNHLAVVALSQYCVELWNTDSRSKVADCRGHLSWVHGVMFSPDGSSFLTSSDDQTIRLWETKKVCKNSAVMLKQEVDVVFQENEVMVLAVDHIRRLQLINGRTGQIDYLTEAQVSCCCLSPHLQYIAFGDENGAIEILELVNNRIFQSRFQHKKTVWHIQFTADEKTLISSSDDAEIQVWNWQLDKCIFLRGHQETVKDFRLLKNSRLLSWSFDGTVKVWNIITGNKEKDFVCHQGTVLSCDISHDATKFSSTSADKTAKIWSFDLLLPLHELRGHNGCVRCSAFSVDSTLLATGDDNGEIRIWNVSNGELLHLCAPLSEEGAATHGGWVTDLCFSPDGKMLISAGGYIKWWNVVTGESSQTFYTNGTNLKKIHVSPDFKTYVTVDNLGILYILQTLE

[20] = target: Ras and Rab interactor 1/Tyrosine-protein kinase ABL1 (Homo sapiens, UniProt P00519+Q13671); format: functional;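 note: biochemical TR-FRET dose-response test measuring inhibition of binding between Rin1 and Abl proteins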
[21] = bead-based luminescence quenchers, dual-tagged ARNT – biochemical, AlphaScreen, cherry-pick, artefact control for ARNT-TACC3 interaction inhibitor project, dose response (AID 651705); format: functional;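 note: AlphaScreen bead proximity signal that flags compounds interfering with the detection technology; potency reflects signal decrease which marks the compound as an assay artifact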

T4 sequence (Q9HC16 whole entry): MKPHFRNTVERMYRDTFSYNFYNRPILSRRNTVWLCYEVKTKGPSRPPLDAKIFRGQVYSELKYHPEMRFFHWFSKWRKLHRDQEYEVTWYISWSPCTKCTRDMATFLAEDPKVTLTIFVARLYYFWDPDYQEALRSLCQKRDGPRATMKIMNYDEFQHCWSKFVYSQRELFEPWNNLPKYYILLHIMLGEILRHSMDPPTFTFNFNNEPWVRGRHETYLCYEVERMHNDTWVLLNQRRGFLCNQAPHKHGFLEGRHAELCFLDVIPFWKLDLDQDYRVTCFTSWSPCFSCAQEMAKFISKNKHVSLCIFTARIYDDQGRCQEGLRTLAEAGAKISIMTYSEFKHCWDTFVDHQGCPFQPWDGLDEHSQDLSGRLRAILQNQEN
T3 sequence (P31941 whole entry): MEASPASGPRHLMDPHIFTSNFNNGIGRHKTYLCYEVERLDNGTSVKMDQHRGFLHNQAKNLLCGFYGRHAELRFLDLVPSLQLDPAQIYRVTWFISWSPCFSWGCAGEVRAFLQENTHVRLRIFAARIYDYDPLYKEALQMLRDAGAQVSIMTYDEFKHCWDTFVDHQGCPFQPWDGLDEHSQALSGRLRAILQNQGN
Sequence of Voltage-gated N-type calcium channel alpha-1B subunit/Amyloid beta A4 precursor protein-binding family A member 1 (Q00975 whole entry): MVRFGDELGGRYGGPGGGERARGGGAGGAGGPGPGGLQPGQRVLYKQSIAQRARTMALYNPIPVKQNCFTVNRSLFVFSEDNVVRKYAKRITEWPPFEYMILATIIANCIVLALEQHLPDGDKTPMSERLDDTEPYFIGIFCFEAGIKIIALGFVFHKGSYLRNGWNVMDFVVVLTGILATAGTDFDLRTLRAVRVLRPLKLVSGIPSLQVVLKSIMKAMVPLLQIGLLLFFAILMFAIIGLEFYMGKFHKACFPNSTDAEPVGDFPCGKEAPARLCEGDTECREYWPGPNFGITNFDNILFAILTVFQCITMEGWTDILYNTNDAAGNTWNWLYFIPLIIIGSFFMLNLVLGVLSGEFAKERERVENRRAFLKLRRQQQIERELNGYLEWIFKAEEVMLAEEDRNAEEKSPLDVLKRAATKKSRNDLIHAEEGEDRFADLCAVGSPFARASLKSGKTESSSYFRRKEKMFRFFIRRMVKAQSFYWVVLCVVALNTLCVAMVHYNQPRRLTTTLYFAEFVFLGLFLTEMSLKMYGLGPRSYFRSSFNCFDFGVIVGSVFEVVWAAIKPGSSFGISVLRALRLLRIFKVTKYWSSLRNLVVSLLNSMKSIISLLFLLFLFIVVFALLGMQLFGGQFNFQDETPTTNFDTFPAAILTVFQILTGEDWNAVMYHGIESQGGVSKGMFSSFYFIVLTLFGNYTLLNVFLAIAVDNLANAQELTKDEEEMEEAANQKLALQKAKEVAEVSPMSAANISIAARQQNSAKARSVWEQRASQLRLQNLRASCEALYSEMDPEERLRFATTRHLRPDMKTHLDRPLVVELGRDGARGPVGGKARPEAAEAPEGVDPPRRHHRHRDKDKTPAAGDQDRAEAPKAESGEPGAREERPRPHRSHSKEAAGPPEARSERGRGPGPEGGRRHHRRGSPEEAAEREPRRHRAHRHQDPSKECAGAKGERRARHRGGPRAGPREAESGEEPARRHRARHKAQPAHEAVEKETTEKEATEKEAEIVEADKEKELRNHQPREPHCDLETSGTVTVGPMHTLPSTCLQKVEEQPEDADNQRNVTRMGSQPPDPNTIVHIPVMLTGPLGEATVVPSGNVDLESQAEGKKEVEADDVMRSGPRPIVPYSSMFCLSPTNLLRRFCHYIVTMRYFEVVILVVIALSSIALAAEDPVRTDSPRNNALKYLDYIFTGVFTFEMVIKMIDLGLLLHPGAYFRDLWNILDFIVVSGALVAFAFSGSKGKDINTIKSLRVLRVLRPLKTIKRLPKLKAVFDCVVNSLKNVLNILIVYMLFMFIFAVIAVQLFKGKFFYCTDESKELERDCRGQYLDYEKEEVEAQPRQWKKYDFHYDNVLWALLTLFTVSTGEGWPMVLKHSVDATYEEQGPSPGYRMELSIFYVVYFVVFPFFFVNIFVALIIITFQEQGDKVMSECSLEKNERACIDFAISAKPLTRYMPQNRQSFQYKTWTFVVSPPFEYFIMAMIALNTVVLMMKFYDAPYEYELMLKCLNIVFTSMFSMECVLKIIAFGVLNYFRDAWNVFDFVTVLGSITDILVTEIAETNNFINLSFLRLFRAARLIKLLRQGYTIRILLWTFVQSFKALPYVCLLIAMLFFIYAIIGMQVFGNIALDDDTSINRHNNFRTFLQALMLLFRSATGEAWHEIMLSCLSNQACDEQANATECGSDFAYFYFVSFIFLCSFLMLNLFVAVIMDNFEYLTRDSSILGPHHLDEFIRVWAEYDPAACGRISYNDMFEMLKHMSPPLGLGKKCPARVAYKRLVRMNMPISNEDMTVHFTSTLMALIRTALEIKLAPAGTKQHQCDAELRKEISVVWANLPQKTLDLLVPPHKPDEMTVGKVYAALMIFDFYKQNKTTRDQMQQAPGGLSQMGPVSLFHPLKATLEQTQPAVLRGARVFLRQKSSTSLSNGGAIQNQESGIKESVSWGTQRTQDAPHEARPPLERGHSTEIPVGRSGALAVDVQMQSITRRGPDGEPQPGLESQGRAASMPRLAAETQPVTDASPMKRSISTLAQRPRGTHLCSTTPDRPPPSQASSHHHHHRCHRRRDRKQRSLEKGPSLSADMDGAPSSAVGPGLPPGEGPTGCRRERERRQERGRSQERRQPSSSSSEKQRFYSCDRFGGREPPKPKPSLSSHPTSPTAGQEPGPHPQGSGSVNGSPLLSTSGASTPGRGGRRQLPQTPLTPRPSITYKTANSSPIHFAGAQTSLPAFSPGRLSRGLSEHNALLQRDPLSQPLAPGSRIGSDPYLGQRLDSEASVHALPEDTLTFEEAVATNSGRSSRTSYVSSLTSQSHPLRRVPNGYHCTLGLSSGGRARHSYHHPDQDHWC
Sequence of Voltage-gated N-type calcium channel alpha-1B subunit/Amyloid beta A4 precursor protein-binding family A member 1 (Q02410 whole entry): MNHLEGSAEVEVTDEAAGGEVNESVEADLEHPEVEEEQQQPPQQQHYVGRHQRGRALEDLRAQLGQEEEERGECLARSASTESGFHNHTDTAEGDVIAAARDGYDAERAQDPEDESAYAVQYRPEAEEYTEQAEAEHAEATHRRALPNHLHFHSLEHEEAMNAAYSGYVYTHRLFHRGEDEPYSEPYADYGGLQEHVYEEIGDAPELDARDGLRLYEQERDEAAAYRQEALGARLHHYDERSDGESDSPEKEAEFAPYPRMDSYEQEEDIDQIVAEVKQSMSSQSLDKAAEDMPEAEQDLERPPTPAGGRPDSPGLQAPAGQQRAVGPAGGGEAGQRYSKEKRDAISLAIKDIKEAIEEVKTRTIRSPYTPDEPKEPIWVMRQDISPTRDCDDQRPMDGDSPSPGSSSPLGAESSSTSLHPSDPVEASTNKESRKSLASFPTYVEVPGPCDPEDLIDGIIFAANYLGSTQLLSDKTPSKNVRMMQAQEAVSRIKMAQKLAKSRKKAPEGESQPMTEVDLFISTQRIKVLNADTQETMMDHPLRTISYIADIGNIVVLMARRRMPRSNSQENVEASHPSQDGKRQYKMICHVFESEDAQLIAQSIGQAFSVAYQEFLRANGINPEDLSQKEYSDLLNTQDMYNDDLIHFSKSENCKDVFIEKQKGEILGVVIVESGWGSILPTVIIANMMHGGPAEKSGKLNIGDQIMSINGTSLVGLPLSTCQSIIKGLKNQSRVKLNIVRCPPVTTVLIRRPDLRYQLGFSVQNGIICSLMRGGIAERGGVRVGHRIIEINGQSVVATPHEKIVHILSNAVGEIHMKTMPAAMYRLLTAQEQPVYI
Sequence of Mitochondrial peptide methionine sulfoxide reductase (P54149 whole entry): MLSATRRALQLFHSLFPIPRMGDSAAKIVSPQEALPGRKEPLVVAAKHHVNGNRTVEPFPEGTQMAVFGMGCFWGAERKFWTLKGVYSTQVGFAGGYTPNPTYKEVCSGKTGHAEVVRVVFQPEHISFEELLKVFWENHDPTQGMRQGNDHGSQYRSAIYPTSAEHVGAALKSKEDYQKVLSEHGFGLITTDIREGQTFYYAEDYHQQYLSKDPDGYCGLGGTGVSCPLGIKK

Structure (SMILES): Cc1ccc(NC2CCCN(C(=O)c3cn(C)c4ccccc34)C2)cc1C (configuration not stated)
IC50 [1]: > 66.2 µM (inactive)
IC50 [2]: > 49.7 µM (inactive)
IC50 [3]: 0.771 µM (active)
IC50 [4]: 8.18 µM (active)
IC50 [5]: 7.1 µM (active)
IC50 [6]: 1.64 µM (active)

Structure (SMILES): Cc1ccc(C=Nn2c(-c3ccco3)n[nH]c2=S)s1
IC50 [7]: 85.5 µM (inactive)
IC50 [8]: 3.67 µM (active)
IC50 [9]: 2.09 µM (active)
IC50 [10]: > 99 µM (inactive)

Structure (SMILES): CCN(CC)c1ccc(NC(=O)Cn2c(C(C)NC(=O)c3ccccc3)nc3ccccc32)cc1 (configuration not stated)
EC50 [11]: > 100 µM (not active)
IC50 [12]: > 50 µM (inactive)
IC50 [1]: > 66.2 µM (inactive)
IC50 [2]: > 49.7 µM (inactive)
IC50 [3]: 0.106 µM (active)
IC50 [4]: 0.382 µM (active)
IC50 [5]: > 88.8 µM (inactive)
IC50 [6]: > 50 µM (inactive)

Structure (SMILES): Oc1ccc(C2Nc3cccc4cccc(c34)N2)cc1
CC50 [13]: 21.8 µM (active)
EC50 [14]: 6.73 µM (active)
EC50 [15]: 11.1 µM (inactive)
IC50 [16]: > 89.2 µM (inactive)
EC50 [17]: 20.4 µM (inactive)

IC50 [18]: 140 µM (inactive)
Structure (SMILES): O=C(NCc1cccnc1)c1ccc(=O)oc1

EC50 [19]: > 100 µM (inactive)
Structure (SMILES): COC(=O)c1coc(-c2cc3ccccc3s2)n1

IC50 [20]: 16.9 µM (inactive)
Structure (SMILES): OC[C@@H]1CN(Cc2ccc(-c3ccccc3)cc2)C[C@H](n2cnc3c(NC4CC4)ncnc32)O1

Structure (SMILES): C[C@@H]1CN([C@@H](C)CO)C(=O)c2cc(NC(=O)CCCN(C)C)ccc2O[C@@H](C)CCCCO[C@H]1CN(C)C(=O)Nc1cccc2ccccc12
AC50 [21]: 74.8 µM (active)
